Test results taken from publication PMC4076524 (The Journal of General Physiology, 2014).
Residue numbers refer to the chain shown, from its start. Blank lines part the entries; values can stand above or below the compound they belong to.

Experiments:
[1] = target: MlotiK1 CNB domain wild type (Mesorhizobium japonicum, UniProt Q98GN8); experiment: 8-NBD cAMP fluorescence binding/competition assay; set-up: species or system Mesorhizobium loti
[2] = target: T1, MlotiK1 CNB domain T284S/V288S/A352D mutant (Mesorhizobium japonicum, UniProt Q98GN8, A352D/T284S/V288S); experiment: 8-NBD cAMP fluorescence binding/competition assay; set-up: species or system Mesorhizobium loti; conditions: for coupling energy for the combination of T284S with V288S/A352D: mutant cycle analysis of ligand binding
T1 sequence (Q98GN8 211-355 T284S/V288S/A352D limits assumed): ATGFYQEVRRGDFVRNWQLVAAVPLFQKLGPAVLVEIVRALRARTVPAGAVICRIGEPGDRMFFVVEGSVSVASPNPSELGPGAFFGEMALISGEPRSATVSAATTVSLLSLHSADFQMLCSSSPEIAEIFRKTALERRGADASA

[3] = target: MlotiK1 CNB domain V282L mutant (Mesorhizobium japonicum, UniProt Q98GN8, V282L); experiment: 8-NBD cAMP fluorescence competition binding assay; set-up: species or system Mesorhizobium loti
Chain of MlotiK1 CNB domain V282L mutant (Q98GN8 211-355 V282L limits assumed): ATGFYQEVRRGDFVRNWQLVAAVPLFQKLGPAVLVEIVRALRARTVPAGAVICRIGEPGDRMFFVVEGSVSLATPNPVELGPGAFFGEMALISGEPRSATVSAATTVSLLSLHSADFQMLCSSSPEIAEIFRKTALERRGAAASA

[4] = target: MlotiK1 CNB domain T284N mutant (Mesorhizobium japonicum, UniProt Q98GN8, T284N); experiment: 8-NBD cAMP fluorescence competition binding assay; set-up: species or system Mesorhizobium loti
Chain of MlotiK1 CNB domain T284N mutant (Q98GN8 211-355 T284N limits assumed): as the sequence (Q98GN8 211-355 V282L limits assumed) above, with L72V, T74N counted along it

[5] = target: MlotiK1 CNB domain T284Q mutant (Mesorhizobium japonicum, UniProt Q98GN8, T284Q); experiment: 8-NBD cAMP fluorescence competition binding assay; set-up: species or system Mesorhizobium loti
Chain of MlotiK1 CNB domain T284Q mutant (Q98GN8 211-355 T284Q limits assumed): as the sequence (Q98GN8 211-355 V282L limits assumed) above, with L72V, T74Q counted along it

[6] = target: MlotiK1 CNB domain T284S mutant (Mesorhizobium japonicum, UniProt Q98GN8, T284S); experiment: 8-NBD cAMP fluorescence competition binding assay; set-up: species or system Mesorhizobium loti
Chain of MlotiK1 CNB domain T284S mutant (Q98GN8 211-355 T284S limits assumed): as the sequence (Q98GN8 211-355 V282L limits assumed) above, with L72V, T74S counted along it

[7] = target: MlotiK1 CNB domain V288A mutant (Mesorhizobium japonicum, UniProt Q98GN8, V288A); experiment: 8-NBD cAMP fluorescence competition binding assay; set-up: species or system Mesorhizobium loti
Chain of MlotiK1 CNB domain V288A mutant (Q98GN8 211-355 V288A limits assumed): as the sequence (Q98GN8 211-355 V282L limits assumed) above, with L72V, V78A counted along it

[8] = target: MlotiK1 CNB domain V288L mutant (Mesorhizobium japonicum, UniProt Q98GN8, V288L); experiment: 8-NBD cAMP fluorescence competition binding assay; set-up: species or system Mesorhizobium loti
Chain of MlotiK1 CNB domain V288L mutant (Q98GN8 211-355 V288L limits assumed): as the sequence (Q98GN8 211-355 V282L limits assumed) above, with L72V, V78L counted along it

[9] = target: MlotiK1 CNB domain V288I mutant (Mesorhizobium japonicum, UniProt Q98GN8, V288I); experiment: 8-NBD cAMP fluorescence competition binding assay; set-up: species or system Mesorhizobium loti
Chain of MlotiK1 CNB domain V288I mutant (Q98GN8 211-355 V288I limits assumed): as the sequence (Q98GN8 211-355 V282L limits assumed) above, with L72V, V78I counted along it

[10] = target: MlotiK1 CNB domain V288S mutant (Mesorhizobium japonicum, UniProt Q98GN8, V288S); experiment: 8-NBD cAMP fluorescence competition binding assay; set-up: species or system Mesorhizobium loti
Chain of MlotiK1 CNB domain V288S mutant (Q98GN8 211-355 V288S limits assumed): as the sequence (Q98GN8 211-355 V282L limits assumed) above, with L72V, V78S counted along it

[11] = target: MlotiK1 CNB domain M299C mutant (Mesorhizobium japonicum, UniProt Q98GN8, M299C); experiment: 8-NBD cAMP fluorescence competition binding assay; set-up: species or system Mesorhizobium loti
Chain of MlotiK1 CNB domain M299C mutant (Q98GN8 211-355 M299C limits assumed): as the sequence (Q98GN8 211-355 V282L limits assumed) above, with L72V, M89C counted along it

[12] = target: MlotiK1 CNB domain M299Q mutant (Mesorhizobium japonicum, UniProt Q98GN8, M299Q); experiment: 8-NBD cAMP fluorescence competition binding assay; set-up: species or system Mesorhizobium loti
Chain of MlotiK1 CNB domain M299Q mutant (Q98GN8 211-355 M299Q limits assumed): as the sequence (Q98GN8 211-355 V282L limits assumed) above, with L72V, M89Q counted along it

[13] = target: MlotiK1 CNB domain A352S mutant (Mesorhizobium japonicum, UniProt Q98GN8, A352S); experiment: 8-NBD cAMP fluorescence competition binding assay; set-up: species or system Mesorhizobium loti; conditions: competition with 50 nM 8-NBD cAMP, constant ligand, variable protein, room temperature, pH 7.5
Chain of MlotiK1 CNB domain A352S mutant (Q98GN8 211-355 A352S limits assumed): as the sequence (Q98GN8 211-355 V282L limits assumed) above, with L72V, A142S counted along it

[14] = target: MlotiK1 CNB domain A352D mutant (Mesorhizobium japonicum, UniProt Q98GN8, A352D); experiment: 8-NBD cAMP fluorescence competition binding assay; set-up: species or system Mesorhizobium loti
Chain of MlotiK1 CNB domain A352D mutant (Q98GN8 211-355 A352D limits assumed): as the sequence (Q98GN8 211-355 V282L limits assumed) above, with L72V, A142D counted along it

[15] = target: MlotiK1 CNB domain R348A mutant (Mesorhizobium japonicum, UniProt Q98GN8, R348A); experiment: 8-NBD cAMP fluorescence competition binding assay; set-up: species or system Mesorhizobium loti; conditions: modified titration
Chain of MlotiK1 CNB domain R348A mutant (Q98GN8 211-355 R348A limits assumed): as the sequence (Q98GN8 211-355 V282L limits assumed) above, with L72V, R138A counted along it

[16] = target: MlotiK1 CNB domain R348N mutant (Mesorhizobium japonicum, UniProt Q98GN8, R348N); experiment: 8-NBD cAMP fluorescence competition binding assay; set-up: species or system Mesorhizobium loti; conditions: affinities (Kd), range stated over R348N, R348Q and R348K for cAMP and cGMP
Chain of MlotiK1 CNB domain R348N mutant (Q98GN8 211-355 R348N limits assumed): as the sequence (Q98GN8 211-355 V282L limits assumed) above, with L72V, R138N counted along it

[17] = target: MlotiK1 CNB domain R348Q mutant (Mesorhizobium japonicum, UniProt Q98GN8, R348Q); experiment: 8-NBD cAMP fluorescence competition binding assay; set-up: species or system Mesorhizobium loti; conditions: affinities (Kd), range stated over R348N, R348Q and R348K for cAMP and cGMP
Chain of MlotiK1 CNB domain R348Q mutant (Q98GN8 211-355 R348Q limits assumed): as the sequence (Q98GN8 211-355 V282L limits assumed) above, with L72V, R138Q counted along it

[18] = target: MlotiK1 CNB domain R348K mutant (Mesorhizobium japonicum, UniProt Q98GN8, R348K); experiment: 8-NBD cAMP fluorescence competition binding assay; set-up: species or system Mesorhizobium loti; conditions: affinities (Kd), range stated over R348N, R348Q and R348K for cAMP and cGMP
Chain of MlotiK1 CNB domain R348K mutant (Q98GN8 211-355 R348K limits assumed): as the sequence (Q98GN8 211-355 V282L limits assumed) above, with L72V, R138K counted along it

[19] = target: MlotiK1 CNB domain R348Y mutant (Mesorhizobium japonicum, UniProt Q98GN8, R348Y); experiment: 8-NBD cAMP fluorescence competition binding assay; set-up: species or system Mesorhizobium loti; conditions: modified titration
Chain of MlotiK1 CNB domain R348Y mutant (Q98GN8 211-355 R348Y limits assumed): as the sequence (Q98GN8 211-355 V282L limits assumed) above, with L72V, R138Y counted along it

[20] = target: MlotiK1 CNB domain V288S/A352S mutant (Mesorhizobium japonicum, UniProt Q98GN8, A352S/V288S); experiment: 8-NBD cAMP fluorescence competition binding assay; set-up: species or system Mesorhizobium loti
Chain of MlotiK1 CNB domain V288S/A352S mutant (Q98GN8 211-355 V288S/A352S limits assumed): as the sequence (Q98GN8 211-355 V282L limits assumed) above, with L72V, V78S, A142S counted along it

[21] = target: T2, MlotiK1 CNB domain V288S/A352D mutant (Mesorhizobium japonicum, UniProt Q98GN8, A352D/V288S); experiment: 8-NBD cAMP fluorescence competition binding assay; set-up: species or system Mesorhizobium loti; conditions: for coupling energy between V288S and A352D: double mutant cycle analysis of ligand binding
T2 sequence (Q98GN8 211-355 V288S/A352D limits assumed): T1 sequence (Q98GN8 211-355 T284S/V288S/A352D limits assumed) with S74T

[22] = target: T284S/V288S/A352D MlotiK1 potassium channel (Mesorhizobium japonicum, UniProt Q98GN8, A352D/T284S/V288S); experiment: 86Rb+ uptake assay in proteoliposomes; assay type: biochemical, Mesorhizobium loti; conditions: Hill fit
Chain of T284S/V288S/A352D MlotiK1 potassium channel (Q98GN8 whole entry T284S/V288S/A352D): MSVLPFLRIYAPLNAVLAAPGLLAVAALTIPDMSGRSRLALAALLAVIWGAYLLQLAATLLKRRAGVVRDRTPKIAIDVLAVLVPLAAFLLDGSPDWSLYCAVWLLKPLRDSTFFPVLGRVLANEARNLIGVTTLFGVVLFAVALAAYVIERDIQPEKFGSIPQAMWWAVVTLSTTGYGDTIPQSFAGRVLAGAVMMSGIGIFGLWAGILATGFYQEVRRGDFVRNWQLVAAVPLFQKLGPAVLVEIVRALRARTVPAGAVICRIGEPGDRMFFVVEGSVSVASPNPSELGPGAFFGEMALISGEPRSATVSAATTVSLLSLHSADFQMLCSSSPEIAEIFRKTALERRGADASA

[23] = tested on: bovine rod photoreceptor CNG channel; conditions: ref Altenhofen et al., 1991; cited from earlier work
[24] = tested on: bovine olfactory CNG channel; conditions: ref Altenhofen et al., 1991; cited from earlier work
[25] = tested on: CNB β domain from the cGMP-dependent protein kinase I; conditions: ref Huang et al., 2014; cited from earlier work
[26] = tested on: olfactory CNG channel, threonine at C-terminal end of PBC mutated to alanine; conditions: threonine to alanine mutant; ref Altenhofen et al., 1991; cited from earlier work

Chain of MlotiK1 CNB domain wild type (Q98GN8 211-355 limits assumed): as the sequence (Q98GN8 211-355 V282L limits assumed) above, with L72V counted along it

Structure (SMILES): Nc1ncnc2c1nc(SCCNc1ccc([N+](=O)[O-])c3nonc13)n2[C@@H]1O[C@@H]2COP(=O)(O)O[C@H]2[C@H]1O [8-NBD cAMP]
Kd [1]: 171 ± 20 nM
Kd [2]: 2000 nM

Structure (SMILES): Nc1nc2c(ncn2[C@@H]2O[C@@H]3COP(=O)(O)O[C@H]3[C@H]2O)c(=O)[nH]1 [cGMP]
Kd [1]: 1730 nM
Kd [3]: 8.95 µM
Kd [4]: 6.56 µM
Kd [5]: 6.95 µM
Kd [6]: 2980 nM
Kd [7]: 2540 nM
Kd [8]: 996 ± 163 nM
Kd [9]: 797 ± 118 nM
Kd [10]: 2100 nM
change in ligand-binding energy by V288S alone ([10]; mutant cycle, relative to wild type): 0.12 ± 0.10 kcal/mol
Kd [11]: 2940 nM
Kd [12]: 11.6 µM
Kd [13]: 727 ± 160 nM
Kd [14]: 850 ± 121 nM
Kd [15]: 39 ± 2.5 µM
Kd [16]: 16 to 46 µM
Kd [17]: 16 to 46 µM
Kd [18]: 16 to 46 µM
Kd [19]: 33 ± 4.8 µM
Kd [20]: 749 ± 75 nM
Kd [21]: 351 ± 95 nM
coupling energy between V288S and A352D [21]: -0.64 ± 0.20 kcal/mol
change in ligand-binding energy by V288S when combined with A352D ([21]; mutant cycle, relative to A352D): -0.52 ± 0.18 kcal/mol
Kd [2]: 336 ± 126 nM
coupling energy for the combination of T284S with V288S/A352D [2]: -0.34 ± 0.29 kcal/mol
Hill coefficient [22]: 1.3
sensitivity to cGMP relative to cAMP (ratio of the K1/2 for channel activation) [23]: ~40 times
sensitivity to cGMP relative to cAMP (ratio of the K1/2 for channel activation) [24]: ~40 times
selectivity for cGMP over cAMP [25]: ~250 times

coupling energy between V288S and A352D [21]: -0.78 ± 0.18 kcal/mol
coupling energy for the combination of T284S with V288S/A352D [2]: 0.14 ± 0.19 kcal/mol
Hill coefficient [22]: 0.84
Structure (SMILES): Nc1ncnc2c1ncn2[C@@H]1O[C@@H]2COP(=O)(O)O[C@H]2[C@H]1O [cAMP]
preference for cAMP [26]: 3.3 fold
